Data set [1] concerns endotoxin (LPS)-induced uveitis in Lewis rats. Description: Endotoxin-induced uveitis in rats (in vivo vi). Also noted: species or system rat. Conditions: for Cell counts / IL-1β Anterior tissue / IL-1β Posterior tissue: Table 7c; for cytokine levels in both the anterior and posterior segments of the eyes: rats treated with intravitreal endotoxin LPS, topical dosing. On the procedure:
Male, Lewis rats (6-8 weeks old, Charles River UK Limited) are housed in cages of 3 at 19-21° C. with a 12 h light/dark cycle (07:00/19:00) and fed a standard diet of rodent chow and water ad libitum. Non-fasted rats are weighed, individually identified on the tail with a permanent marker, and receive a single intravitreal administration into the right vitreous humor (5 μL dose volume) of 100 ng/animal of LPS (Escherichia coli 0111:B4 prepared in PBS, Sigma Aldrich, UK) using a 32-gauge needle. Untreated rats are injected with PBS. […] Following euthanasia, the right eye of each animal is enucleated and dissected into front (anterior) and back (posterior) sections around the lens. Each section is weighed and homogenised in 500 μL of sterile phosphate buffered saline followed by 20 minutes centrifugation at 12000 rpm at 4° C.

For data set [2], the system named is β-catenin in d-U937 cells. Description: Accumulation of β catenin in d-U937 cells (assay m). Format: cell-based, human. The method, boiled down:
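U937 cells were differentiated with PMA (100 ng/mL) for 48–72 hr, then treated with compound or vehicle for 18 hr. After formaldehyde fixation, β-catenin was detected with a primary antibody and an HRP secondary using TMB (OD450–655). Signal was normalised to crystal violet cell staining (OD595).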

The next data set has as its target GSK 3α (Homo sapiens (Human), UniProt P49840). Description: GSK 3α enzyme inhibition (FRET, Z-LYTE; Method 2). Format: biochemical. Conditions: read-out: IC50 Values for Enzyme Inhibition GSK3α. The gist of the method: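 Phosphorylation was taken from the donor (coumarin) to acceptor (fluorescein) emission ratio after 1 h protease development, which cleaves only unphosphorylated peptide. Before that, peptide (8 μM stock) plus ATP (40 μM stock) reacted 1 h. This followed a 105 min RT preincubation of GSK3-α with compound stocks of 10–0.01 μg/mL.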

A short description of data set [3]: Plasma pharmacokinetics in rats, single intravenous or oral administration. Type of data set: in vivo, rat (male Wistar). Conditions: rats. The procedure: Studies were conducted by Sai Life Sciences (Hinjewadi, Pune, India) to investigate the plasma pharmacokinetics and total colon tissue distribution of compounds of the invention. In particular, pharmacokinetic studies were carried out in: • male C57BL/6 mice, following a single oral administration; and • male Wistar rats following a single intravenous or oral administration.

The target in another data set is c-Src (Homo sapiens (Human), UniProt P12931). Description: c-Src enzyme inhibition (FRET, Z-LYTE). Format: biochemical. The gist of the method:
(§1)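 Syk or c-Src enzyme (3000 or 2000 ng/mL solutions) was preincubated 2 h at RT with compound solutions at 1, 0.1, 0.01 or 0.001 µg/mL. Z-LYTE FRET peptide (8 µM solution) and ATP (800 µM solution for c-Src, 60 µM for Syk) were then added for 1 h, followed by protease development for 1 h. Phosphorylation was read as the coumarin/fluorescein emission ratio.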

The target in another data set is p38 MAPKα (MAPK14) (Homo sapiens (Human), UniProt Q16539). Description: p38 MAPKα enzyme inhibition (FRET, Z-LYTE; Method 2). Type of data set: biochemical.
Sequence of p38 MAPKα (MAPK14) (Q16539 whole entry): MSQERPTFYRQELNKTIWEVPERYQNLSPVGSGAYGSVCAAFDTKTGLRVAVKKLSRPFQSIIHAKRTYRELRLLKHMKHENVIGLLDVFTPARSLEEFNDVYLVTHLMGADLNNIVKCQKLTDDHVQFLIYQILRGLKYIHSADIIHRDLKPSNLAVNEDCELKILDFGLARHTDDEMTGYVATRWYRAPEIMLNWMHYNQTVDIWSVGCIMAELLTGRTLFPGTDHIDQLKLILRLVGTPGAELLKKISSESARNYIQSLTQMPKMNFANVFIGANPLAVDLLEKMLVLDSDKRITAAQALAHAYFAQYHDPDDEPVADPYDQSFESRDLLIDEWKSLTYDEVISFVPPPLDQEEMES
The target of the next data set is Syk (Homo sapiens (Human), UniProt P43405). As to the kind of experiment: Syk enzyme inhibition (FRET, Z-LYTE). Format: biochemical. The gist of the method:
as §1

The next data set relates to non-mutant kinases. Format: binding. Conditions: for number of individual kinase hits, S(1): non-mutant kinases with % Ctrl <1. The procedure: These assays may be conducted by DiscoverX (formerly Ambit; San Diego, Calif.). The percentage inhibition produced by incubation with a test compound may be calculated relative to the non-inhibited control.
The mark [4] stands for this setting: Table 7a, eyes of LPS-stimulated rats, 1 mg/mL.
Setting [5] is: male, Wistar, rat, plasma, intravenous 0.25 mg/kg.
Where [6] appears, read: eyes of LPS-stimulated rats, 1 mg/mL.

Where two headings read alike, the source gives them in different places.

Sequence of c-Src (P12931 whole entry, looked up): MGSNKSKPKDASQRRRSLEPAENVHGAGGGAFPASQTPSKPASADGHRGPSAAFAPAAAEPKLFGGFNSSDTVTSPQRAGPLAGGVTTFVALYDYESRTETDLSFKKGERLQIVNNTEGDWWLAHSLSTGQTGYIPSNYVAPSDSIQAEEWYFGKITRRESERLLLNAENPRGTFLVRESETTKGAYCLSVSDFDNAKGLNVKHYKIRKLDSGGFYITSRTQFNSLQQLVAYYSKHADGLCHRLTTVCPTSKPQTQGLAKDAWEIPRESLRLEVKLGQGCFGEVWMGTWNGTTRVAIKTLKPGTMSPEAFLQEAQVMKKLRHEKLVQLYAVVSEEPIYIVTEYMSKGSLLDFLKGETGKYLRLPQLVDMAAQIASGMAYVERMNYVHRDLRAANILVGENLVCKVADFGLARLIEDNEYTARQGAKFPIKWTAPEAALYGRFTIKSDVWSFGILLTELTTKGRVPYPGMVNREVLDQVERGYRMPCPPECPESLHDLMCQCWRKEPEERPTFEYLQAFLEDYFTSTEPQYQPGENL
Sequence of GSK 3α (P49840 whole entry): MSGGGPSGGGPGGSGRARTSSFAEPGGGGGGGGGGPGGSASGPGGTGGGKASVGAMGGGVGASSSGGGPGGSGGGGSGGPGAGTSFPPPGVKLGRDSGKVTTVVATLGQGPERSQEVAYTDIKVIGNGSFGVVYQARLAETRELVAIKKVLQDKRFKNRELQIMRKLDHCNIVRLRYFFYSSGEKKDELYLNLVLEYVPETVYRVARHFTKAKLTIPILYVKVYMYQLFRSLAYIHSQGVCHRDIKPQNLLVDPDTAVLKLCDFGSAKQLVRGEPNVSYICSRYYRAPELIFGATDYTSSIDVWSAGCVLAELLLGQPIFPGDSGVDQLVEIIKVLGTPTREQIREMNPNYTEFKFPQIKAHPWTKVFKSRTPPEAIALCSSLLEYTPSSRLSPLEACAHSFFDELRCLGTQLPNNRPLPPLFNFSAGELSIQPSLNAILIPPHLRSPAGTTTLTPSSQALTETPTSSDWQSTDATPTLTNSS

With `C[C@@H]1C[C@H]2[C@@H]3CCC4=CC(=O)C=C[C@]4(C)[C@@]3(F)[C@@H](O)C[C@]2(C)[C@@]1(O)C(=O)CO` [Dexamethasone], in data set [1] (setting [4]), the “IL-1β Anterior” value stood at 553.5 ± 155.7 pg/mL, the “IL-1β Posterior” value is 365.6 ± 178.2 pg/mL, the “IL-6 Anterior” value amounted to 1000.7 ± 126.2 pg/mL and the “IL-6 Posterior” value stood at 1723.4 ± 224.1 pg/mL. Besides, in data set [1] (setting [4]), the “MCP-1 Anterior” value is 156.3 ± 50.8 pg/mL and the “MCP-1 Posterior” value was determined as 95.2 ± 32.5 pg/mL.
On to `CNC(=O)c1cc(C(C)(C)C)cc(NC(=O)Nc2ccc(Oc3ccnc(Nc4cc(OC)cc(OCCOCCOCCOC)c4)c3)c3ccccc23)c1OC` [Example 29, 5-(tert-Butyl)-2-methoxy-3-(3-(4-((2-((3-methoxy-5-(2-(2-(2-methoxyethoxy)ethoxy)-ethoxy)phenyl)amino)pyridin-4-yl)oxy)naphthalen-1-yl)ureido)-N-methylbenzamide], for which the “% β-catenin induction” value in data set [2] (test compound 1 μg/mL) is recorded as 4%; in data set [2] (test compound 5 μg/mL) it was 7%; in data set [2] (test compound 10 μg/mL), −4%. Moreover, the IC50 (in general, the concentration that inhibits the measured activity by half) stood at 6320 nM at GSK 3α, 19 nM against c-Src, 26 nM against p38 MAPKα (MAPK14) and 96 nM against Syk. Also, the AUC(0-inf) (usually the area under the concentration-time curve extrapolated to infinity) in data set [3] (setting [5]) stood at 295 ng·h/mL. Moreover, the AUC(0-t) (as a rule, exposure summed from dosing to a finite time, without extrapolation to infinity) in data set [3] (setting [5]) was 293 ng·h/mL. For the same compound, the half-life – broadly, how long it takes for the measured level to halve – in data set [3] (setting [5]) is 42 min. In addition, the C0 in data set [3] (male, Wistar, rat, plasma, intravenous 0.25 mg/kg in 5% DMSO-7.5% Solutol HS15-87.5% normal saline) came out at 2500 ng/mL. Also, the Vd in data set [3] (male, Wistar, rat, plasma, intravenous 0.25 mg/kg, read-out: Vss) came to 0.3 L/kg. In addition, in data set [3] (intravenous 0.25 mg/kg), the CI was 14.2 mL/min/kg. Besides, the Cell counts in data set [1] (setting [6]) is 33.0 ± 6.7. For the same compound, the “IL-1β Anterior tissue” value in data set [1] (setting [6]) stood at 441.3 ± 138.5 pg/mL. Moreover, the “IL-1β Posterior tissue” value in data set [1] (setting [6]) is reported as 272.1 ± 93.8 pg/mL. The “cytokine levels in both the anterior and posterior segments of the eyes” value in data set [1] is recorded as “significantly reduced”.
Consider `COc1cc(Nc2cc(Oc3ccc(NC(=O)Nc4cc(C(C)(C)C)cc(NS(C)(=O)=O)c4OC)c4ccccc34)ccn2)cc(C(=O)NCCCN2CCOCC2)c1` [Example 66, 3-((4-((4-(3-(5-(tert-Butyl)-2-methoxy-3-(methysulfonamido)phenyl)ureido)naphthalen-1-yl)oxy)pyridin-2-yl)amino)-5-methoxy-N-(3-morpholinopropyl)benzamide], for which the “% β-catenin induction” value is on record as 0% in data set [2] (test compound 1 μg/mL), 6% in data set [2] (test compound 5 μg/mL) and 3% in data set [2] (test compound 10 μg/mL). The IC50 at GSK 3α came out at 2430 nM; against c-Src it was 23 nM; on p38 MAPKα (MAPK14), 140 nM; at Syk, 330 nM. The compound also had a Cell counts in data set [1] (setting [6]) of 28.0 ± 7.6. The “IL-1β Anterior tissue” value in data set [1] (setting [6]) was 342.7 ± 145.3 pg/mL. The “IL-1β Posterior tissue” value in data set [1] (setting [6]) was determined as 209.9 ± 59.0 pg/mL. In addition, the “cytokine levels in both the anterior and posterior segments of the eyes” value in data set [1] is recorded as “significantly reduced”.
On to `C#Cc1cc(Nc2cc(Oc3ccc(NC(=O)Nc4cc(C(C)(C)C)cc(NS(C)(=O)=O)c4OC)c4ccccc34)ccn2)cc(C(=O)N[C@@H](C)COCCOCCOC)c1` [Example 67], for which the “% β-catenin induction” value in data set [2] (test compound 1 μg/mL) is listed as 3%; in data set [2] (test compound 5 μg/mL) it was 2%; in data set [2] (test compound 10 μg/mL) it was −2%. For the same compound, the IC50 at GSK 3α was 11700 nM; against c-Src it was 56 nM; at p38 MAPKα (MAPK14) it was 245 nM; against Syk it was 1170 nM.
On to `C#Cc1cc(Nc2cc(Oc3ccc(NC(=O)Nc4cc(C(C)(C)C)cc(NS(C)(=O)=O)c4OC)c4ccccc34)ccn2)cc(C(=O)N[C@H](C)COCCOCCOC)c1` [Example 68, (R)-3-((4-((4-(3-(5-(tert-Butyl)-2-methoxy-3-(methylsulfonamido)phenyl)ureido)-naphthalen-1-yl)oxy)pyridin-2-yl)amino)-5-ethynyl-N-(1-(2-(2-methoxyethoxy)ethoxy)-propan-2-yl)benzamide], for which the “% β-catenin induction” value is reported as 2% in data set [2] (test compound 1 μg/mL), 2% in data set [2] (test compound 5 μg/mL) and −1% in data set [2] (test compound 10 μg/mL). Further, the IC50 at GSK 3α came to 11700 nM; against c-Src, 70 nM; on p38 MAPKα (MAPK14) it was 209 nM; at Syk it was 1170 nM.
In the case of `CCOc1c(NC(=O)Nc2ccc(Oc3ccnc(Nc4cc(OC)cc(OCCOCCOCCOC)c4)n3)c3ccccc23)cc(C(C)(C)C)cc1NS(C)(=O)=O` [Example 69], the “% β-catenin induction” value in data set [2] (test compound 1 μg/mL) was 10%; in data set [2] (test compound 5 μg/mL), 17%; in data set [2] (test compound 10 μg/mL) it was 25%. Moreover, the IC50 at GSK 3α was 1530 nM; on c-Src, 13 nM; against p38 MAPKα (MAPK14), 147 nM; against Syk, 121 nM.
Regarding `COCCOCCOCCOc1cc(Nc2cc(Oc3ccc(NC(=O)Nc4cc(C(C)(C)C)cc(C(=O)NCCN(C)C)c4OC)c4ccccc34)ccn2)cc(OC)c1` [Example 76, 5-(tert-Butyl)-N-(2-(dimethylamino)ethyl)-2-methoxy-3-(3-(4-((2-((3-methoxy-5-(2-(2-(2-methoxyethoxy)ethoxy)ethoxy)phenyl)amino)pyridin-4-yl)oxy)naphthalen-1-yl)ureido)-benzamide], the “% β-catenin induction” value in data set [2] (test compound 1 μg/mL) is 2%; in data set [2] (test compound 5 μg/mL) it was −1%; in data set [2] (test compound 10 μg/mL), −13%. Further, the IC50 at GSK 3α was 4790 nM; against c-Src it was 31 nM; at p38 MAPKα (MAPK14) it was 159 nM; at Syk, 35 nM.
As to `COCCOCCOCCOc1cc(Nc2cc(Oc3ccc(NC(=O)Nc4cc(C(C)(C)C)cc(C(=O)NC5COC5)c4OC)c4ccccc34)ccn2)cc(OC)c1` [Example 77, 5-(tert-Butyl)-2-methoxy-3-(3-(4-((2-((3-methoxy-5-(2-(2-(2-methoxyethoxy)ethoxy)ethoxy)-phenyl)amino)pyridin-4-yl)oxy)naphthalen-1-yl)ureido)-N-(oxetan-3-yl)benzamide], the “% β-catenin induction” value is on record as −4% in data set [2] (test compound 1 μg/mL), −1% in data set [2] (test compound 5 μg/mL) and −1% in data set [2] (test compound 10 μg/mL). Besides, the IC50 came out at 3540 nM at GSK 3α, 23 nM against c-Src, 216 nM at p38 MAPKα (MAPK14) and 39 nM at Syk.
In the case of `COc1cccc(Nc2cc(Oc3ccc(NC(=O)Nc4cc(C(C)(C)C)cc(C(=O)NC5COC5)c4OC)c4ccccc34)ccn2)c1` [Example 81, 5-(tert-Butyl)-2-methoxy-3-(3-(4-((2-((3-methoxyphenyl)amino)pyridin-4-yl)oxy)naphthalen-1-yl)ureido)-N-(oxetan-3-yl)benzamide], the “% β-catenin induction” value was found to be 4% in data set [2] (test compound 1 μg/mL), 14% in data set [2] (test compound 5 μg/mL) and 13% in data set [2] (test compound 10 μg/mL). The IC50 at GSK 3α stood at 4930 nM; at c-Src it was 58 nM; against p38 MAPKα (MAPK14), 173 nM; against Syk it was 121 nM.
On to `COCC(=O)Nc1cc(Oc2ccc(NC(=O)Nc3cc(C(C)(C)C)nn3-c3ccc(C)cc3)c3ccccc23)ccn1` [Reference Compound, N-(4-(4-(3-(3-tert-butyl-1-p-tolyl-1H-pyrazol-5-yl)ureido)naphthalen-1-yloxy)pyridin-2-yl)-2-methoxyacetamide, reference compound], for which the “number of individual kinase hits, S(1)” value came to 7 in the data set with non-mutant kinases (50 nM) and 45 with non-mutant kinases (500 nM). In addition, the “number of individual kinase hits, S(10)” value in the data set on non-mutant kinases (50 nM, non-mutant kinases with % Ctrl <10) is 32. The “number of individual kinase hits, S(35)” value with non-mutant kinases (50 nM, non-mutant kinases with % Ctrl <35) is recorded as 67.

(Values after patent US9481648B2, “Kinase inhibitors” (Respivert Limited, priority 2013, dated 2016).)
